Assay results published in ChEMBL document CHEMBL6083255, “Synthesis and biological evaluation of novel isobenzofuran-1(3H)-one derivatives as antidepressant agents” (2024).
Calls of active or inactive are those of the source. No cut-off for these calls is given here.

Experiments:
[1] = tested on: Mus musculus; test: Antidepressant activity in chronic restraint stress induced C57BL/6J mouse model assessed as increase in 5-HT level in prefrontal cortex at 10 to 50 mg/kg, po pretreated with CRS for 14 days followed by compound addition on day 15 by ELISA; type: functional, organism-based; conditions: dose 10-50 mg/kg
[2] = tested on: RBL-2H3; test: Cytotoxicity against Wistar rat RBL-2H3 cells assessed as cell viability at 1 uM incubated for 24 hrs by MTT assay; type: functional; conditions: read-out: Activity
[3] = tested on: Mus musculus; test: Antidepressant activity in chronic restraint stress induced C57BL/6J mouse model assessed as rescue of normal neurons at 10 to 50 mg/kg, po pretreated with CRS for 14 days followed by compound addition on day 15 by Nissl staining based optical microscopic assay; type: functional, organism-based; conditions: dose 10-50 mg/kg
[4] = tested on: Mus musculus; test: Antidepressant activity in chronic restraint stress induced C57BL/6J mouse model assessed as increase in total distance in center zone at 10 mg/kg, po administered as prophylactic dose and measured on day 29 by open field test; type: functional, organism-based; conditions: time 29.0 day
[5] = tested on: Mus musculus; test: Antidepressant activity in chronic restraint stress induced C57BL/6J mouse model assessed as increase in time in open arm at 10 mg/kg, po administered as prophylactic dose and measured on day 31 by elevated plus maze test; type: functional, organism-based; conditions: time 31.0 day
[6] = tested on: Mus musculus; test: Antidepressant activity in chronic restraint stress induced C57BL/6J mouse model assessed as increase in TrkB expression level at 10 mg/kg, po administered as prophylactic dose by Western blotting assay; type: functional, organism-based
[7] = tested on: Mus musculus; test: Antidepressant activity in C57BL/6J mouse assessed as reduction in CRS induced body weight loss at 10 mg/kg, po administered as prophylactic dose and measured upto 28 days; type: functional, organism-based; conditions: time <= 28.0 day
[8] = tested on: Mus musculus; test: Antidepressant activity in chronic restraint stress induced C57BL/6J mouse model assessed as increase in spinophilin positive cells in cortex at 10 mg/kg, po administered as prophylactic dose by immunohistochemistry assay; type: functional, organism-based
[9] = tested on: Mus musculus; test: Antidepressant activity in C57BL/6J mouse assessed as reduction in CRS induced body weight loss at 10 to 50 mg/kg, po pretreated with CRS for 14 days followed by compound addition on day 15 and measured upto 28 days; type: functional, organism-based; conditions: dose 10-50 mg/kg, time <= 28.0 day
[10] = tested on: Mus musculus; test: Antidepressant activity in chronic restraint stress induced C57BL/6J mouse model assessed as increase in hippocampus TPH2 protein expression at 10 mg/kg, po administered as prophylactic dose by Western blotting analysis; type: functional, organism-based
[11] = tested on: RBL-2H3; test: Cytotoxicity against Wistar rat RBL-2H3 cells assessed as cell viability at 25 uM incubated for 24 hrs by MTT assay; type: functional; conditions: read-out: Activity
[12] = tested on: CHO-K1; test: Agonist activity at CCK-B receptor in CHO-K1 cells incubated for 90 sec by microplate reader assay; type: cell-based; conditions: Cricetulus griseus
[13] = tested on: Mus musculus; test: Antidepressant activity in chronic restraint stress induced C57BL/6J mouse model assessed as increase in entries in open arm at 10 to 50 mg/kg, po pretreated with CRS for 14 days followed by compound addition on day 15 and measured after 31 days by elevated plus maze test; type: functional, organism-based; conditions: dose 10-50 mg/kg, time 31.0 day
[14] = tested on: RBL-2H3; test: Cytotoxicity against Wistar rat RBL-2H3 cells assessed as cell viability at 5 uM incubated for 24 hrs by MTT assay; type: functional; conditions: read-out: Activity
[15] = tested on: Mus musculus; test: Antidepressant activity in chronic restraint stress induced C57BL/6J mouse model assessed as increase in distance in open arm at 10 to 50 mg/kg, po pretreated with CRS for 14 days followed by compound addition on day 15 and measured after 31 days by elevated plus maze test; type: functional, organism-based; conditions: dose 10-50 mg/kg, time 31.0 day
[16] = tested on: Mus musculus; test: Antidepressant activity in chronic restraint stress induced C57BL/6J mouse model assessed as reduction in immobility time at 10 mg/kg, po administered as prophylactic dose and measured on day 30 by force swimming test; type: functional, organism-based; conditions: time 30.0 day
[17] = tested on: Mus musculus; test: Antidepressant activity in chronic restraint stress induced C57BL/6J mouse model assessed as increase in latency entries into center zone at 10 mg/kg, po administered as prophylactic dose and measured on day 29 by open field test; type: functional, organism-based; conditions: time 29.0 day
[18] = tested on: Mus musculus; test: Antidepressant activity in chronic restraint stress induced C57BL/6J mouse model assessed as increase in PSD-95 expression level at 10 mg/kg, po administered as prophylactic dose by Western blotting assay; type: functional, organism-based
[19] = tested on: Mus musculus; test: Antidepressant activity in chronic restraint stress induced C57BL/6J mouse model assessed as increase in latency entries into center zone at 10 to 50 mg/kg, po pretreated with CRS for 14 days followed by compound addition on day 15 and measured after 29 days by open field test; type: functional, organism-based; conditions: dose 10-50 mg/kg, time 29.0 day
[20] = tested on: Mus musculus; test: Antidepressant activity in chronic restraint stress induced C57BL/6J mouse model assessed as increase in total distance in center zone at 10 to 50 mg/kg, po pretreated with CRS for 14 days followed by compound addition on day 15 and measured after 29 days by open field test; type: functional, organism-based; conditions: dose 10-50 mg/kg, time 29.0 day
[21] = tested on: RBL-2H3; test: Cytotoxicity against Wistar rat RBL-2H3 cells assessed as cell viability at 125 uM incubated for 24 hrs by MTT assay; type: functional; conditions: read-out: Activity
[22] = tested on: Mus musculus; test: Antidepressant activity in chronic restraint stress induced C57BL/6J mouse model assessed as reduction in immobility time at 10 to 50 mg/kg, po pretreated with CRS for 14 days followed by compound addition on day 15 and measured after 30 days by force swimming test; type: functional, organism-based; conditions: dose 10-50 mg/kg, time 30.0 day
[23] = tested on: Mus musculus; test: Antidepressant activity in chronic restraint stress induced C57BL/6J mouse model assessed as increase in 5-HT level in prefrontal cortex at 10 mg/kg, po administered as prophylactic dose by ELISA; type: functional, organism-based
[24] = tested on: Mus musculus; test: Antidepressant activity in chronic restraint stress induced C57BL/6J mouse model assessed as increase in distance in open arm at 10 mg/kg, po administered as prophylactic dose and measured on day 31 by elevated plus maze test; type: functional, organism-based; conditions: time 31.0 day
[25] = tested on: Mus musculus; test: Antidepressant activity in chronic restraint stress induced C57BL/6J mouse model assessed as increase in spinophilin positive cells in cortex at 10 to 50 mg/kg, po pretreated with CRS for 14 days followed by compound addition on day 15 by immunohistochemistry assay; type: functional, organism-based; conditions: dose 10-50 mg/kg
[26] = tested on: Mus musculus; test: Antidepressant activity in chronic restraint stress induced C57BL/6J mouse model assessed as increase in Bcl2/Bax level at 10 mg/kg, po administered as prophylactic dose by Western blotting assay; type: functional, organism-based
[27] = tested on: CHO-K1; test: Antagonist activity at CCK-B receptor in CHO-K1 cells at 50 uM incubated for 90 sec by microplate reader assay; type: cell-based; conditions: Cricetulus griseus
[28] = tested on: Mus musculus; test: Antidepressant activity in chronic restraint stress induced C57BL/6J mouse model assessed as increase the time in center zone at 10 mg/kg, po administered as prophylactic dose and measured on day 29 by open field test; type: functional, organism-based; conditions: time 29.0 day
[29] = molecular target: Sodium-dependent serotonin transporter (Rattus norvegicus) (UniProt P31652); test: Inhibition of SERT in Wistar rat RBL-2H3 cells assessed as decrease in fluorescence intensity at 10 uM preincubated for 2 hrs followed by APP+ addition and measured after 1 hr by fluorescence based assay; type: cell-based; conditions: time 3.0 hrs
[30] = tested on: Mus musculus; test: Antidepressant activity in chronic restraint stress induced C57BL/6J mouse model assessed as increase in time in open arm at 10 to 50 mg/kg, po pretreated with CRS for 14 days followed by compound addition on day 15 and measured after 31 days by elevated plus maze test; type: functional, organism-based; conditions: dose 10-50 mg/kg, time 31.0 day
[31] = tested on: Mus musculus; test: Antidepressant activity in chronic restraint stress induced C57BL/6J mouse model assessed as increase in entries in open arm at 10 mg/kg, po administered as prophylactic dose and measured on day 31 by elevated plus maze test; type: functional, organism-based; conditions: time 31.0 day
[32] = tested on: CHO-K1; test: Antagonist activity at mu opioid receptor in CHO-K1 cells assessed as intracellular fluorescence intensity at 50 uM incubated for 2 mins by microplate reader assay; type: cell-based; conditions: Cricetulus griseus
[33] = tested on: Mus musculus; test: Antidepressant activity in chronic restraint stress induced C57BL/6J mouse model assessed as increase the time in center zone at 10 to 50 mg/kg, po pretreated with CRS for 14 days followed by compound addition on day 15 and measured after 29 days by open field test; type: functional, organism-based; conditions: dose 10-50 mg/kg, time 29.0 day
[34] = tested on: CHO-K1; test: Agonist activity at mu opioid receptor in CHO-K1 cells assessed as increase in intracellular fluorescence intensity at 50 uM incubated for 90 sec by microplate reader assay; type: cell-based; conditions: Cricetulus griseus
[35] = tested on: Mus musculus; test: Antidepressant activity in chronic restraint stress induced C57BL/6J mouse model assessed as increase in BDNF expression level at 10 mg/kg, po administered as prophylactic dose by Western blotting assay; type: functional, organism-based
[36] = tested on: Mus musculus; test: Antidepressant activity in chronic restraint stress induced C57BL/6J mouse model assessed as rescue of normal neurons at 10 mg/kg, po administered as prophylactic dose by Nissl staining based optical microscopic assay; type: functional, organism-based

Sodium-dependent serotonin transporter (Rattus norvegicus), sequence (P31652 whole entry): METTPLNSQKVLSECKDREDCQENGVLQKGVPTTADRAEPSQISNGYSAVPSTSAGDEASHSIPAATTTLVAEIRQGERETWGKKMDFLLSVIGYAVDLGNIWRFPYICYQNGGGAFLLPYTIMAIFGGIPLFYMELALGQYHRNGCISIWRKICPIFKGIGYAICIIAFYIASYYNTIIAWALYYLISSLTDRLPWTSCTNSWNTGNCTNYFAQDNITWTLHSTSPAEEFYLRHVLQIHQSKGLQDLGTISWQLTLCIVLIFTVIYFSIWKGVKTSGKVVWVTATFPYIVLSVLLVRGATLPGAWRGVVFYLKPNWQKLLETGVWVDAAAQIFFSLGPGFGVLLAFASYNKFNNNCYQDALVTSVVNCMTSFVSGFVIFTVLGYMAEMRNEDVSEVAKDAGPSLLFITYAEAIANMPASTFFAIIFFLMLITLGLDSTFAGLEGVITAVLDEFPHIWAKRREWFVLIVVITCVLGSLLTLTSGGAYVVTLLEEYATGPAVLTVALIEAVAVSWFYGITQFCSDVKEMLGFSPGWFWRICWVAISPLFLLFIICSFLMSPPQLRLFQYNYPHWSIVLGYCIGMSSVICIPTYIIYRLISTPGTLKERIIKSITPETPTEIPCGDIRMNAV

Compound: CCN(CC)CC1(c2ccc(Cl)cc2)OC(=O)c2ccccc21 (stereo unspecified)
- Activity [1]: Active
- viability at 1 µM [2]: 105%
- Activity [3]: Active
- Activity [4]: Active
- Activity [5]: Active
- Activity [6]: Active
- Activity [7]: Active
- Activity [8]: Active
- Activity [9]: Active
- Activity [10]: Active
- viability at 25 µM [11]: 117%
- Activity [12]: inactive
- Activity [13]: Active
- viability at 5 µM [14]: 107%
- Activity [15]: Active
- Activity [16]: Active
- Activity [17]: Active
- Activity [18]: Active
- Activity [19]: Active
- Activity [20]: Active
- viability at 125 µM [21]: 132%
- Activity [22]: Active
- Activity [23]: Active
- Activity [24]: Active
- Activity [25]: Active
- Activity [26]: Active
- Activity [27]: inactive
- Activity [28]: Active
- Activity [29]: Active; Activity Stronger Than Fluoxetine
- Activity [30]: Active
- Activity [31]: Active
- Activity [32]: inactive
- Activity [33]: Active
- Activity [34]: inactive
- Activity [35]: Active
- Activity [36]: Active
